Here are results for nine molecules from ChEMBL document CHEMBL1201862, “PubChem BioAssay data set” (2004).

Test systems include IGROV-1; U-251; OVCAR-8; RPMI-8226; CCRF-CEM; UACC-257; HOP-62; SK-MEL-28; OVCAR-5; SF-539; A549; NCI-H226; HCT-116; NCI-H23; OVCAR-3; SR; SN12C.
Holding throughout (assay): inhibition of tumour cell growth, NCI panel, 48 h

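Growth conditions: 96-well plates. Treatment: test compound, 48 hours, 5 concentrations. Analysis: linear interpolation between bracketing concentrations; unreached endpoints set to highest concentration. GI50 marks 50% less growth.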 Calls of active or inactive are those of the source. Cut-off read from the data, not from the text of the source: active = GI50 up to about 1.1 µM and inactive = higher.

Regarding `Nc1nc(-c2ccccc2)cc(-c2ccccc2O)n1`, the GI50 in the assay on IGROV-1 is 49.4 µM (inactive); in the assay with U-251 it was 45.2 µM (inactive); with OVCAR-8, 39.7 µM (inactive); with RPMI-8226, 22.6 µM (inactive); in the assay on CCRF-CEM it was 34 µM (inactive); with UACC-257, 73.8 µM (inactive). Besides, the GI50 with HOP-62 is 25.1 µM (inactive); in the assay on SK-MEL-28 it was 57.1 µM (inactive); in the assay with OVCAR-5, 32.8 µM (inactive); in the assay on SF-539, 37.4 µM (inactive); with A549, 34.6 µM (inactive); in the assay on NCI-H226 it was 19 µM (inactive). In addition, the GI50 was 20.7 µM (inactive) in the assay on HCT-116; 43.3 µM (inactive) in the assay with NCI-H23; 33.5 µM (inactive) in the assay on OVCAR-3; 30.3 µM (inactive) in the assay with SR; 37.8 µM (inactive) in the assay on SN12C.
Take `COc1cccc(NC(=O)CC(=O)N2NC(C)C(/N=N/c3cccc(C(=O)O)c3)C2=O)c1` (stereo not given): the GI50 in the assay with IGROV-1, in the assay on U-251, in the assay on OVCAR-8, with RPMI-8226, in the assay with CCRF-CEM and with UACC-257 was > 100 µM (inactive) in each case. The GI50 with HOP-62, in the assay on SK-MEL-28, with OVCAR-5, with SF-539, in the assay on A549 and in the assay with NCI-H226 was > 100 µM (inactive) in each case. Moreover, the GI50 in the assay on HCT-116, in the assay with NCI-H23, with OVCAR-3, in the assay with SR and with SN12C was > 100 µM (inactive) throughout.
As to `CC(=O)OCC1OC(OC2C(COC(C)=O)OC(Sc3ccccc3C)C(OC(C)=O)C2OC(C)=O)C(OC(C)=O)C(OC(C)=O)C1OC(C)=O` (stereo not given), the GI50 in the assay on IGROV-1, with U-251, in the assay on RPMI-8226, in the assay with UACC-257, in the assay with HOP-62 and in the assay with SK-MEL-28 was > 100 µM (inactive) each time. For the same molecule, the GI50 in the assay on OVCAR-5, in the assay on SF-539, in the assay on A549, in the assay with NCI-H226, in the assay on HCT-116 and in the assay on NCI-H23 was > 100 µM (inactive) in each case. For the same molecule, the GI50 in the assay with SR and in the assay with SN12C was > 100 µM (inactive) in each case.
Consider `CCOC(=O)/C(C(C)=O)=C1/N[C@H](C(=O)OCC)CS1`, for which the GI50 in the assay on IGROV-1, in the assay with U-251, with OVCAR-8, with RPMI-8226, in the assay with CCRF-CEM and with UACC-257 was > 100 µM (inactive) throughout. In addition, the GI50 with HOP-62 was > 100 µM (inactive); in the assay on SK-MEL-28, > 100 µM (inactive); in the assay with OVCAR-5 it was > 100 µM (inactive); in the assay with SF-539 it was 10 µM (inactive); in the assay with A549 it was > 100 µM (inactive); with NCI-H226 it was > 100 µM (inactive). Also, the GI50 in the assay with HCT-116, in the assay on NCI-H23, with OVCAR-3, in the assay on SR and with SN12C was > 100 µM (inactive) throughout.
As to `CC1=CC2CC(C)=C(CC[C@]3(C)CC[C@H]([C@@H](C)C(=O)O)OO3)C(C)(C)C2CC1` (stereo not given in full), the GI50 in the assay with IGROV-1 is 0.212 µM (active); in the assay on U-251, 0.356 µM (active); with OVCAR-8, 0.603 µM (active); in the assay with RPMI-8226 it was 0.304 µM (active); in the assay with CCRF-CEM it was 0.182 µM (active); in the assay with UACC-257, 1.53 µM (inactive). The GI50 was 1.75 µM (inactive) with HOP-62; 1.57 µM (inactive) with SK-MEL-28; 2.34 µM (inactive) in the assay with OVCAR-5; 1.26 µM (inactive) in the assay on SF-539; 0.45 µM (active) in the assay on A549; 1.85 µM (inactive) in the assay on NCI-H226. Besides, the GI50 with HCT-116 is 0.457 µM (active); with NCI-H23 it was 0.9 µM (active); in the assay on OVCAR-3, 1.63 µM (inactive); in the assay with SR, 0.195 µM (active); with SN12C, 0.391 µM (active).
As to `CC(=O)O[C@@]1(C)[C@@H](C)C(=O)O[C@@H]2CCN3CC=C(COC(=O)[C@]1(C)O)[C@H]23`, the GI50 with IGROV-1, in the assay on U-251, with OVCAR-8, with RPMI-8226, in the assay on CCRF-CEM and in the assay with UACC-257 was > 100 µM (inactive) throughout. Besides, the GI50 in the assay on HOP-62, with SK-MEL-28, in the assay on OVCAR-5, with SF-539, in the assay on A549 and in the assay on NCI-H226 was > 100 µM (inactive) throughout. The GI50 in the assay with HCT-116, in the assay with NCI-H23, with OVCAR-3 and with SR was > 100 µM (inactive) each time.
For `CC1(C)N=C(c2ccccn2)C(c2ccccn2)=NC1(C)C`, the GI50 in the assay on IGROV-1, with U-251, with OVCAR-8, with RPMI-8226, in the assay on CCRF-CEM and in the assay with UACC-257 was > 100 µM (inactive) throughout. In addition, the GI50 with OVCAR-5, with SF-539, with A549, with NCI-H226, in the assay with HCT-116 and in the assay on OVCAR-3 was > 100 µM (inactive) throughout. Further, the GI50 in the assay with SR and in the assay on SN12C was > 100 µM (inactive) in each case.
Turning to `COc1ccccc1NC(=O)CC(=O)N1N=C(c2ccccc2)C(/N=N/c2ccc(Cl)cc2)C1=O` (stereo not given), the GI50 in the assay on IGROV-1 is 29.9 µM (inactive); with U-251, 30.9 µM (inactive); in the assay with OVCAR-8, 41.8 µM (inactive); in the assay with RPMI-8226 it was > 100 µM (inactive); in the assay with UACC-257 it was 65 µM (inactive); with HOP-62, 23.4 µM (inactive). In addition, the GI50 is 37 µM (inactive) with SK-MEL-28; > 100 µM (inactive) in the assay with OVCAR-5; 36.8 µM (inactive) in the assay with SF-539; 25.1 µM (inactive) in the assay with A549; 27.5 µM (inactive) in the assay with NCI-H226; 30.1 µM (inactive) in the assay on HCT-116. For the same molecule, the GI50 in the assay on NCI-H23 was 34.4 µM (inactive); with OVCAR-3 it was 28.4 µM (inactive); in the assay with SR, 55.1 µM (inactive); in the assay with SN12C it was 68.1 µM (inactive).
In the case of `NC(=O)C(c1ccccc1)N1CCOCC1` (stereo not given), the GI50 with IGROV-1, in the assay with U-251, in the assay on OVCAR-8, with RPMI-8226, in the assay on CCRF-CEM and in the assay with UACC-257 was > 100 µM (inactive) each time. For the same molecule, the GI50 in the assay with HOP-62, in the assay on SK-MEL-28, with OVCAR-5, in the assay with SF-539, in the assay on A549 and in the assay on NCI-H226 was > 100 µM (inactive) each time. The GI50 in the assay on HCT-116, with NCI-H23, with OVCAR-3, with SR and in the assay on SN12C was > 100 µM (inactive) in each case.
